Assay results as given in US20230278972A1, “SUBSTITUTED HALOALKYL SULFONANILIDE HERBICIDES” (FMC Corporation, priority 2020, published 2023).

What was measured:
Format in all cases: in vivo
[1] = system: horseweed (Erigeron canadensis); experiment: Test A1 postemergence, horseweed; details: for Horseweed plant response rating: postemergence; for Plant response rating, Horseweed: Postemergence
Summary of the method: (§1)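 Both timings started from seed in a loam-sand blend. Preemergence pots got a directed soil application immediately; postemergence pots were sprayed when seedlings had one or two leaves and stood 2–10 cm. Each compound was prepared in a non-phytotoxic solvent plus surfactant.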

[2] = system: blackgrass (Alopecurus myosuroides); experiment: Test A1 preemergence, blackgrass
Summary of the method: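 Seeds were first planted into a blend of loam soil and sand and given a preemergence directed soil spray. In parallel, pots of the same soil were sown for postemergence application once plants reached 2 to 10 cm and the one- to two-leaf stage. Both used surfactant-containing non-phytotoxic solvent formulations.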

[3] = system: ducksalad (Heteranthera limosa); experiment: Test B1 flooded paddy test, ducksalad; details: 250 g ai/ha, Flood, applied to paddy water, 2-leaf stage, visually evaluated after 10 to 14 days
Text: A dash (-) response means no test result.

[4] = system: galium (catchweed bedstraw, Galium aparine); experiment: Test A1 postemergence, galium; details: for Galium plant response rating: postemergence; for Plant response rating, Galium: Postemergence
Summary of the method: as §1

[5] = system: Ryegrass, Italian (Italian ryegrass, Lolium multiflorum); experiment: Test A1 postemergence, Ryegrass, Italian; details: for Ryegrass, Italian plant response rating: postemergence; for Plant response rating, Ryegrass, Italian: Postemergence
Summary of the method: as §1

[6] = 31 g ai/ha, 0 to 100 scale (0 no effect, 100 complete control)
[7] = 125 g ai/ha, 0 to 100 scale (0 no effect, 100 complete control), 10 days
[8] = 125 g ai/ha, 0 to 100 scale, 0 no effect, 100 complete control
[9] = 31 g ai/ha, 0 to 100 scale (0 no effect, 100 complete control), 10 days

SMILES	Horseweed plant response rating [1, 6]	Plant response rating, Horseweed [1, 7]	Plant response rating, Blackgrass [2, 6]	Plant response rating, Blackgrass [2, 8]	Plant response rating, Ducksalad (0 to 100 scale, 0 is no effect, 100 is complete control) [3]	Galium plant response rating [4, 6]	Plant response rating, Galium [4, 7]	Ryegrass, Italian plant response rating [5, 6]	Plant response rating, Ryegrass, Italian [5, 7]	Plant response rating, Horseweed ([1]; 125 g ai/ha, 0 to 100 scale)	Plant response rating, Galium ([4]; 125 g ai/ha, 0 to 100 scale)	Plant response rating, Ryegrass, Italian ([5]; 125 g ai/ha, 0 to 100 scale)	Plant response rating, Horseweed [1, 9]	Plant response rating, Galium [4, 9]	Plant response rating, Ryegrass, Italian [5, 9]
Cc1cc(C)c(N2CCC3(CCC(C(F)(F)F)CC3)C2=O)cc1NS(=O)(=O)C(F)(F)F (stereo not shown) [Compound 400]	30	80	20	80	55	80	100	0	0	–	–	–	–	–	–
Cc1cc(C)c(N2CCC3(CCC(C)CC3)C2=O)cc1NS(=O)(=O)C(F)(F)F (stereo not shown) [Compound 402]	20	50	70	80	45	70	90	0	0	–	–	–	–	–	–
COc1cccc2c1C(=O)N(c1cc(N(COC(=O)C(C)(C)C)S(=O)(=O)Cl)c(C)cc1C)C2 [Compound 413]	40	90	20	20	80	50	100	0	0	–	–	–	–	–	–
Cc1cc(Cl)c(NS(=O)(=O)C(F)(F)F)cc1N1CC2(CCCCC2)OC1=O [Compound 394]	30	80	0	70	85	100	100	20	40	–	–	–	–	–	–
Cc1cc(C)c(N(COC(=O)C(C)(C)C)S(=O)(=O)C(F)(F)F)cc1N1CCC2(CCC(C)CC2)C1=O (stereo not shown) [Compound 401]	0	0	0	0	45	50	80	0	0	–	–	–	–	–	–
Cc1cc(C)c(N2Cc3cccc(Br)c3C2=O)cc1NS(=O)(=O)Cl [Compound 415]	60	–	–	–	65	60	90	0	60	–	–	–	–	–	–
Cc1c(NS(=O)(=O)C(F)(F)F)cc(C2=NOC3(CCCC3)C2)c(C)c1C [Compound 380]	30	80	–	–	70	50	60	0	60	–	–	–	–	–	–
Cc1cc(C)c(N(S(=O)(=O)C(F)(F)F)S(=O)(=O)C(F)(F)F)cc1N1CCC2(CCC(C(F)(F)F)CC2)C1=O (stereo not shown) [Compound 399]	0	50	20	60	75	50	90	0	70	–	–	–	–	–	–
CCC1CC(c2cc(N(COC(=O)C(C)(C)C)S(=O)(=O)C(F)(F)F)c(C)cc2C)=NO1 (stereo not shown) [Compound 376]	0	–	0	20	70	10	–	0	–	0	30	0	–	–	–
CCOC(=O)N(c1cc(C2=NOC3CCCC23)c(CC)cc1C)S(=O)(=O)C(F)(F)F (stereo not shown) [Compound 379]	0	–	–	–	60	0	–	0	–	50	40	0	–	–	–
Cc1cc(Cl)c(NS(=O)(=O)C(F)(F)F)cc1N1CCC2(CCCCC2)C1=O [Compound 393]	0	30	70	90	95	100	100	30	50	–	–	–	–	–	–
Cc1c(C(=O)N2CCSCC2)cc(N(COC(=O)C(C)(C)C)S(=O)(=O)C(F)(F)F)c(C)c1C [Compound 285]	–	–	–	–	50	–	–	–	–	80	80	0	70	40	0
Cc1cc(C)c(N(COC(=O)C(C)(C)C)S(=O)(=O)C(F)(F)F)cc1C1=NOC(C(C)C)C1 (stereo not shown) [Compound 383]	0	30	–	–	25	0	60	0	0	–	–	–	–	–	–
Cc1cc(C)c(C2=NOC3OCCCC23)cc1NS(=O)(=O)C(F)(F)F (stereo not shown) [Compound 372]	0	–	0	40	65	60	–	0	–	–	80	50	–	–	–
Cc1cc(C)c(N2Cc3cccc(C)c3C2=O)cc1NS(=O)(=O)Cl [Compound 408]	20	70	90	100	75	90	100	70	80	–	–	–	–	–	–
Cc1cc(C)c(N2CC3(CCCCC3)CC2=O)cc1NS(=O)(=O)C(F)(F)F [Compound 392]	0	20	10	40	65	50	80	0	0	–	–	–	–	–	–
CCc1cc(C)c(N(COC(=O)C(C)(C)C)S(=O)(=O)C(F)(F)F)cc1C1=NOC2CCCC12 (stereo not shown) [Compound 378]	0	–	–	–	20	20	–	0	–	90	40	0	–	–	–
COC1CCC2(CC1)CCN(c1cc(NS(=O)(=O)C(F)(F)F)c(C)cc1C)C2=O (stereo not shown) [Compound 398]	20	50	60	90	95	80	90	50	90	–	–	–	–	–	–
